Read-outs that look alike come from different tables or passages of the source.
What was measured:
Type in all cases: biochemical
[1] = biological target: Acetylcholinesterase (AChE) (Homo sapiens, UniProt P22303); experiment: Acetylcholinesterase inhibition efficiency (acetylthiocholine/DTNB absorbance)
Protocol: (§1) Concentrations of 0, 2, 5, 10, 20, 50, 100, and 200 μM of the synthesized compounds were prepared by dilution in 10% DMSO, 63% phosphate buffer, and 27% tween 80, and 50 μl was dispensed into a 96-well plate. Acetylcholinesterase or butyrylcholinesterase was prepared at 0.5 U/ml, 50 μl was added to a 96-well plate, mixed with the aliquoted compound, and left for 10 minutes. The substrate, acetylthiocholine or butyrylthiocholine, was prepared at 0.4mg/ml, then 50 μl was added to a 96-well plate and left for 20 minutes. Dithionitrobenzoic acid (DTNB) was prepared at 1.2 mg/ml, then 50 μl was added to a 96-well plate and left for 10minutes.

[2] = biological target: Butyrylcholinesterase (BuChE) (Homo sapiens, UniProt P06276); experiment: Butyrylcholinesterase inhibition efficiency (butyrylthiocholine/DTNB absorbance)
Protocol: as §1

[3] = biological target: T1, Monoamine oxidase B (MAO-B) (Homo sapiens, UniProt P27338); experiment: Monoamine oxidase B inhibition efficiency (kynuramine fluorescence)
T1 sequence (P27338 1-520): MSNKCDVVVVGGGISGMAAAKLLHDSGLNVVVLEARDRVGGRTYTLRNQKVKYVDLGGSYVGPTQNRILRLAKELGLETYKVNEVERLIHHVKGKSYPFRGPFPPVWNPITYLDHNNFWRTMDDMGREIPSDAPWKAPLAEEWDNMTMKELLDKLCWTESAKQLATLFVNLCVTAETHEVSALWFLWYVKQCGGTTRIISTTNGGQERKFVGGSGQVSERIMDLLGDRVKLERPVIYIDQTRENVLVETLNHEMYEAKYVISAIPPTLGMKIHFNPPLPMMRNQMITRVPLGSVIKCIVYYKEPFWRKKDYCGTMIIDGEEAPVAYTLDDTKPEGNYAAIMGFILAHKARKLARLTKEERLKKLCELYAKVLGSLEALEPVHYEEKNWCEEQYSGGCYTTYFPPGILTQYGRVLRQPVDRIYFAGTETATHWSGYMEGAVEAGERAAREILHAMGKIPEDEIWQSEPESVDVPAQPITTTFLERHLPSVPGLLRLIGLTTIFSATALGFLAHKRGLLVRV
Protocol: Samples were prepared by dilution with DMSO to give concentrations of 0, 2, 5, 10, 20, 50, 100, and 200 μM of the compound, and 5 μl was dispensed into a 96-well plate. 135 μl of potassium phosphate buffer (0.1 M, 7.4 pH) was dispensed into a 96-well plate. Monoamine oxidase B was prepared at 40 μl/ml, and 50 μl was added to the 96-well plate, mixed with the dispensed compound, and left for 20 minutes. The substrate, kynuramine solution, was prepared at 100 μM, then 10 μl was added to a 96-well plate and left for 10 min. The reaction was stopped by adding 75 μl of NaOH (2N). For the fluorescence blank experiment, potassium phosphate buffer was added instead of monoamine oxidase B to correct the compound-induced fluorescence intensity values.

[4] = 0.5 U/ml enzyme, acetylthiocholine substrate, compound 0-200 μM, read-out: IC50 for AChE
[5] = 0.5 U/ml enzyme, butyrylthiocholine substrate, compound 0-200 μM, read-out: IC50 for BuChE
[6] = kynuramine substrate, potassium phosphate buffer pH 7.4, compound 0-200 μM, read-out: IC50 for MAOB

Sequence of Butyrylcholinesterase (BuChE) (P06276 29-602): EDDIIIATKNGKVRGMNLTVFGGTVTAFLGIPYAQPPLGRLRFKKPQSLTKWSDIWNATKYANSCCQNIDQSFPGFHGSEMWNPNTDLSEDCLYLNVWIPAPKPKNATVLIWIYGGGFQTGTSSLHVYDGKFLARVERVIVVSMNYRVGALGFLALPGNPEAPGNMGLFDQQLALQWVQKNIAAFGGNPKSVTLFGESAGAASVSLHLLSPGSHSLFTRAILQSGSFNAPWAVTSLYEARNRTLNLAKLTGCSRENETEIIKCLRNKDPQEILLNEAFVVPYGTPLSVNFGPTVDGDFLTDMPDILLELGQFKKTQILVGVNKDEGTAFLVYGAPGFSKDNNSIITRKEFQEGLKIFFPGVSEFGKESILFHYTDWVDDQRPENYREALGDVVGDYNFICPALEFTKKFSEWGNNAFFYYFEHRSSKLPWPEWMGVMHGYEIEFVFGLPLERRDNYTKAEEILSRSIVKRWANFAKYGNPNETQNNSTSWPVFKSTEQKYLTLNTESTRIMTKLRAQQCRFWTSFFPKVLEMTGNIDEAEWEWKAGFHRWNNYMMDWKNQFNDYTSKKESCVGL
Sequence of Acetylcholinesterase (AChE) (P22303 32-614, species assumed): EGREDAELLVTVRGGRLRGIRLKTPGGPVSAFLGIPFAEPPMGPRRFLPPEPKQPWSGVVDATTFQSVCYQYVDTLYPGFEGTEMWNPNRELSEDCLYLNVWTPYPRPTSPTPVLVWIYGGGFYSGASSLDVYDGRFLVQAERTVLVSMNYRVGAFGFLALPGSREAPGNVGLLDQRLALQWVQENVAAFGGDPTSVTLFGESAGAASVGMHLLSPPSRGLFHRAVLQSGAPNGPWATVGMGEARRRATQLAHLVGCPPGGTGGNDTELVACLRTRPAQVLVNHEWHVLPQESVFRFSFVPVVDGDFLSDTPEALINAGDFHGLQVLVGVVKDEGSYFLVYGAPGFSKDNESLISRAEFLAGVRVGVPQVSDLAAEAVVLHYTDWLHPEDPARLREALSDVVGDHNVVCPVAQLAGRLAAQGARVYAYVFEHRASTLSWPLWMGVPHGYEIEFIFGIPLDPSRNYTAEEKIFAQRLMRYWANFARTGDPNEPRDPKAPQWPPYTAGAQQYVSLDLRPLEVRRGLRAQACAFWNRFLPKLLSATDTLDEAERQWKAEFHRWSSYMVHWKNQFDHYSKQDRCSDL

Structure (SMILES) | IC50 [1] [µM] | IC50 [2] [µM] | IC50 [3] [µM] | IC50 [1, 4] [µM] | IC50 [2, 5] [µM] | IC50 [3, 6] [µM]
C=C(C)[C@@H]1CCC(C)=C[C@H]1c1c(O)cc(O)cc1CCCCC [compound 1a, (1′R,2′R)-5′-methyl-6-pentyl-2′-(prop-1-en-2-yl)-1′,2′,3′,4′-tetrahydro-[1, 1′-biphenyl]-2,4-diol] | 3.1 | 1.7 | 44 |  |  | 
C=C(C)[C@@H]1CCC(C)=C[C@H]1c1c(O)cc(O)cc1CCC [compound 1b, (1′R,2′R)-5′-methyl-2′-(prop-1-en-2-yl)-6-propyl-1′,2′,3′,4′-tetrahydro-[1, 1′-biphenyl]-2,4-diol] | 58.2 | 4 | 31.5 |  |  | 
C=C(C)[C@@H]1CCC(C)=C[C@H]1c1c(O)cc(O)cc1C(C)=O [compound 1p, 1-((1′R,2′R)-4,6-dihydroxy-5′-methyl-2′-(prop-1-en-2-yl)-1′,2′,3′,4′-tetrahydro-[1, 1′-biphenyl]-2-yl) ethan-1-one] |  |  |  | 4.6 | 2 | 2.1
C=C(C)[C@@H]1CCC(C)=C[C@H]1c1ccc(O)c(Br)c1O [compound 1m, (1′R,2′R)-3-bromo-5′-methyl-2′-(prop-1-en-2-yl)-1′,2′,3′,4′-tetrahydro-[1, 1′-biphenyl]-2,4-diol] | 42.6 |  |  |  | 44.6 | 118
C=C(C)[C@@H]1CCC(C)=C[C@H]1c1cc(C(=O)NCCc2ccc(OC)cc2)c(O)cc1O [compound 1o, (1′R,2′R)-4,6-dihydroxy-N-(4-methoxyphenethyl)-5′-methyl-2′-(prop-1-en-2-yl)-1′, 2′,3′,4′-tetrahydro-[1,1′-biphenyl]-3-carboxamide] |  |  |  | 15.3 | 27.3 | 56.1
C=C(C)[C@@H]1CCC(C)=C[C@H]1c1c(O)cc(O)cc1OC [compound 1h, (1′R,2′R)-6-methoxy-5′-methyl-2′-(prop-1-en-2-yl)-1′,2′,3′,4′-tetrahydro-[1, 1′-biphenyl]-2,4-diol] |  |  |  | 78 | 55.3 | 35.8
C=C(C)[C@@H]1CCC(C)=C[C@H]1c1cc(Cl)c(O)cc1O [compound 1f, (1′R,2′R)-5-chloro-5′-methyl-2′-(prop-1-en-2-yl)-1′,2′,3′,4′-tetrahydro-[1, 1′-biphenyl]-2,4-diol] | 20 |  |  |  | 19.3 | 29.9
C=C(C)[C@@H]1CCC(C)=C[C@H]1c1c(O)cc(O)c(C(C)=O)c1O [compound 1l, 1-((1′R,2′R)-2,4,6-trihydroxy-5′-methyl-2′-(prop-1-en-2-yl)-1′,2′,3′,4′-tetrahydro-[1,1′-biphenyl]-3-yl)ethan-1-one] |  |  |  | 23.3 | 6.6 | 7.99
C=C(C)[C@H]1CCC(C)=C[C@@H]1c1c(O)cc(OC)c([C@@H]2C=C(C)CC[C@H]2C(=C)C)c1O [compound 1k, (1R,1″S,2R,2″S)-6′-methoxy-5,5″-dimethyl-2,2″-di(prop-1-en-2-yl)-1, 1″,2,2″,3,3″,4,4″-octahydro-[1,1′:3′,1″-terphenyl]-2′,4′-diol] |  |  |  | 5.3 |  | 
C=C(C)[C@@H]1CCC(C)=C[C@H]1c1ccc(O)c(C(C)=O)c1O [compound 1i, 1-((1′R,2′R)-2,4-dihydroxy-5′-methyl-2′-(prop-1-en-2-yl)-1′,2′,3′,4′-tetrahydro-[1, 1′-biphenyl]-3-yl)ethan-1-one] |  |  |  | 6.6 | 7.3 | 16.4
C=C(C)[C@@H]1CCC(C)=C[C@H]1c1c(C)cc(O)cc1O [compound 1c, (1′R,2′R)-5′,6-dimethyl-2′-(prop-1-en-2-yl)-1′,2′,3′,4′-tetrahydro-[1, 1′-biphenyl]-2,4-diol] | 2.6 | 1.7 | 24.8 |  |  | 
C=C(C)[C@@H]1CCC(C)=C[C@H]1c1c(O)cc(O)cc1CCc1ccccc1 [compound 1d, (1′R,2′R)-5′-methyl-6-phenethyl-2′-(prop-1-en-2-yl)-1′,2′,3′,4′-tetrahydro-[1, 1′-biphenyl]-2,4-diol] | 3.3 | 2.6 |  |  |  | 
C=C(C)[C@@H]1CCC(C)=C[C@H]1c1ccc(O)c(C(=O)O)c1O [compound 1n, (1′R,2′R)-2,4-dihydroxy-5′-methyl-2′-(prop-1-en-2-yl)-1′,2′,3′,4′-tetrahydro-[1, 1′-biphenyl]-3-carboxylic acid] |  |  |  | 10.6 | 13.3 | 30.7
C=C(C)[C@@H]1CCC(C)=C[C@H]1c1cc(C(=O)NCCc2ccc(O)cc2)c(O)cc1O [compound 1q, (1′R,2′R)-4,6-dihydroxy-N-(4-hydroxyphenethyl)-5′-methyl-2′-(prop-1-en-2-yl)-1′, 2′,3′,4′-tetrahydro-[1,1′-biphenyl]-3-carboxamide] | 7.3 |  |  |  | 3.3 | 18.1
C=C(C)[C@@H]1CCC(C)=C[C@H]1c1c(O)c(C(C)=O)c(O)c([C@@H]2C=C(C)CC[C@H]2C(=C)C)c1O [compound 1j, 1-((1R,1″R,2R,2″R)-2′,4′,6′-trihydroxy-5,5″-dimethyl-2,2″-di (prop-1-en-2-yl)-1,1″,2,2″,3,3″,4,4″-octahydro-[1,1′:3′,1″-terphenyl]-5′-yl)ethan-1-one] |  |  |  | 2 | 30.6 | 142
C=C(C)[C@@H]1CCC(C)=C[C@H]1c1c(O)cc(O)cc1C#N [compound 1g, (1′R,2′R)-4,6-dihydroxy-5′-methyl-2′-(prop-1-en-2-yl)-1′,2′,3′,4′-tetrahydro-[1, 1′-biphenyl]-2-carbonitrile] | 74 |  |  |  | 8.6 | 61.1
C=C(C)[C@@H]1CCC(C)=C[C@H]1c1c(O)cc(O)cc1Br [compound 1e, (1′R,2′R)-6-bromo-5′-methyl-2′-(prop-1-en-2-yl)-1′,2′,3′,4′-tetrahydro-[1,1′-biphenyl]-2,4-diol] | 20 |  |  |  | 9.3 | 26.2

From patent US20240383830A1, “NOVEL CANNABIDIOL DERIVATIVE, METHOD FOR PREPARING SAME, AND COMPOSITION FOR COGNITIVE FUNCTION I[…]” (priority 2021, published 2024)
